From ChEMBL document CHEMBL5137022, “Antitumor Activity of Rutaecarpine in Human Colorectal Cancer Cells by Suppression of Wnt/β-Catenin Signaling” (J Nat Prod, 2022) come the findings set out here.

In one experiment the test system is HCT-116. Description: Antiproliferative activity against human HCT-116 cells harboring beta-catenin mutant assessed as reduction in cell viability measured after 72 hrs by SRB assay. The conditions noted are these: HCT-116, 72 h. The format is functional, cell-based.
For experiment [1], the system named is LS174T. Description: Downregulation of survivin expression in human LS174T cells at 2.5 to 20 uM incubated for 24 hrs by Western blot analysis. The format is functional, cell-based. Particulars: dose 2.5-20 µM. (In general: A western blot detects proteins with antibodies after separation by electrophoresis.)
Experiment [2] deals with LS174T. Description: Induction of cell cycle arrest in human LS174T cells assessed as accumulation of cells at G0/G1 phase at 20 uM measured after 24 hrs by RNase A/propidium iodide staining based flow cytometric analysis (reference value: 71.7 %). The format is functional. For orientation: Flow cytometry measures light scatter and fluorescence of single cells or particles in a stream.

Experiment [3] deals with LS174T. Description: Induction of cell cycle arrest in human LS174T cells assessed as downregulation of cyclin D1 expression measured after 24 hrs by Western blot analysis. The conditions noted are these: dose 5-20 µM, DDE = dose-dependent effect. It counts as functional, cell-based.
The test system of experiment [4] is LS174T. Description: Induction of cell cycle arrest in human LS174T cells assessed as upregulation of p21 expression measured after 24 hrs by Western blot analysis. The format is functional, cell-based. The conditions noted are these: dose 5-20 µM, DDE = dose-dependent effect.
Experiment [5] deals with LS174T. Description: Induction of cell cycle arrest in human LS174T cells assessed as accumulation of cells at G2/M phase at 20 uM measured at 12 hrs by RNase A/propidium iodide staining based flow cytometric analysis (reference value: 12.9 %). It counts as functional.
For experiment [6], the system named is LS174T. Description: Induction of cell cycle arrest in human LS174T cells assessed as accumulation of cells at S phase at 20 uM measured at 24 hrs by RNase A/propidium iodide staining based flow cytometric analysis (reference value: 11.4 %). It counts as functional.
Experiment [7] has as its system LS174T. Description: Induction of cell cycle arrest in human LS174T cells assessed as accumulation of cells at S phase at 20 uM measured at 36 hrs by RNase A/propidium iodide staining based flow cytometric analysis (reference value: 11.4 %). It counts as functional.
The subject of experiment [8] is LS174T. Description: Induction of apoptosis in human LS174T cells assessed as total cell death at 20 uM measured after 48 hrs by AnnexinV-FITC/PI staining based flowcytometry analysis relative to control. The format is functional.
Experiment [9] deals with LS174T. Description: Induction of apoptosis in human LS174T cells assessed as total cell death at 30 uM measured after 48 hrs by AnnexinV-FITC/PI staining based flowcytometry analysis relative to control. The format is functional.
For experiment [10], the system named is LS174T. Description: Induction of apoptosis in human LS174T cells assessed as total cell death at 40 uM measured after 48 hrs by AnnexinV-FITC/PI staining based flowcytometry analysis relative to control. It counts as functional.
A further experiment has as its system Mus musculus. Description: Downregulation of Ki-67 expression in tumor of BALB/c mouse xenografted with human LS174T cells at 10 to 30 mg/kg, ip administered 3 times per week for 21 days by immunohistochemical based analysis. The format is functional, organism-based. Particulars: dose 10-30 mg/kg, time 21.0 day.

The source made the active and inactive calls. The rule behind the calls is not given here.

In the case of `O=c1c2ccccc2nc2n1CCc1c-2[nH]c2ccccc12` [RUTAECARPINE], in the experiment with HCT-116, the IC50 (in general, the point on the concentration scale where inhibition reaches its midpoint) amounted to 31.1 µM. Besides, the outcome in the experiment with LS174T [1] and in the experiment with Mus musculus was Active. Besides, the Activity in the experiment on LS174T [2] is 87.3%; in the experiment with LS174T [3] it was “Dde”; with LS174T [4], “Dde”; with LS174T [5], 16.8%; in the experiment on LS174T [6], 2.2%; in the experiment on LS174T [7], 2.1%. The Activity in the experiment with LS174T [8] was determined as 24.7%; in the experiment on LS174T [9] it was 65.7%; in the experiment on LS174T [10] it was 85.4%.
